Assay: Kinematic viscosity of non-volatile hydrocarbon oil
Type: physicochemical
Conditions: viscosity measuring temperature 40 ° C.
Description: The “kinematic viscosity” is a value obtained by converting a viscosity (mPa·s) measured according to “Method II Viscosity measurement by rotational viscometer (2.12 Single cylinder-type rotational viscometer (Brookfield type viscometer)” in “2.53 Viscosity Determination” of General Tests in “Japanese Pharmacopoeia 17th Edition” into a kinematic viscosity.

In the case of `CC(C)CCCC(C)CCCC(C)CCCCC(C)CCCC(C)CCCC(C)C` (stereo not shown) [SQUALANE], the Kinematic viscosity is reported as 20.5 mm^2/s.

Source: patent US20240366523A1, “PATCH AND PRODUCTION METHOD THEREOF” (KANEKA CORPORATION, priority 2021, published 2024)
